Tests used:
Pyrenophora teres [1] = assay: B-10. Pyrenophora teres in vitro cell test; assay type: cell-based; conditions: 144 h, 20 ppm of active ingredient, 6 days incubation, liquid culture, absorbance, read-out: efficacy (inhibition of fungal growth)
Method in brief: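 Liquid-culture assay on a P. teres spore suspension with compounds added to the medium from DMSO solutions, final DMSO ≤1%. Mycelium growth read spectrometrically after 6 days. Inhibition calculated from absorbance against untreated control wells.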

[2] = Measurement of Log P values by HPLC on reversed phase columns (EEC directive 79/831 Annex V.A8); assay type: physicochemical; conditions: reversed phase HPLC column, method [a]: LC-UV, acidic range, 0.1% formic acid in water and acetonitrile as eluent
Method in brief: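 Log P derived from retention on reversed-phase columns (EEC directive 79/831 Annex V.A8), LC-UV, acetonitrile gradient 10% to 95% against water containing 0.1% formic acid, 0.001 M ammonium acetate, or 0.1% phosphoric acid; several values per method separated by "+".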

Alternaria alternata = Alternaria alternata in vitro cell test; assay type: cell-based; conditions: 120 h, 20 ppm of active ingredient, liquid culture, 5 days incubation, spectrometric measurement of mycelium growth, read-out: efficacy (inhibition of fungal growth)
Method in brief: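 Spectrometric readout of mycelial growth after 5-day incubation gauged compound effects on spore germination and growth of A. alternata in liquid medium. Compounds were delivered in DMSO at ≤1% final. Absorbance was compared with untreated controls to give inhibition.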

Pyrenophora teres [3] = assay: In vivo preventive test on Pyrenophora teres (net blotch on barley); conditions: 240 h, 500 ppm of active ingredient, preventive spray on barley, evaluated 10 days after inoculation, read-out: efficacy
Method in brief: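 Net blotch spores were sprayed onto barley leaves one day after foliar treatment with water-diluted DMSO/acetone/Tween 80 formulations (solvent-only controls). Plants were kept at 20° C: first 48 hours at 100% relative humidity, then 8 days at 70-80%.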

Botrytis cinerea [4] = assay: B-11. Botrytis cinerea in vitro cell test; assay type: cell-based; conditions: 144 h, 20 ppm of active ingredient, 6 days incubation, liquid culture, absorbance, read-out: efficacy (inhibition of fungal growth)
Method in brief: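 B. cinerea spores were grown in liquid culture with compound (DMSO ≤1% final). Mycelium growth was measured spectrometrically after 6 days, with inhibition taken as absorbance relative to untreated control wells.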

Sphaerotheca fuliginea = assay: In vivo preventive test on Sphaerotheca fuliginea (powdery mildew on cucurbits); conditions: Podosphaera fuliginea, 192 h; 500 ppm of active ingredient; preventive spray on gherkin; evaluated 8 days after inoculation; read-out: efficacy
Method in brief: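 This is a preventive spray test on gherkin seedlings, with compound formulated in DMSO/acetone/Tween 80 in water and solvent-only controls. Spore inoculation followed one day after treatment. Incubation lasted 8 days at 20 °C, 70–80% RH.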

[5] = tested on: Colletotrichum lindemuthianum; assay: In vivo preventive test on Colletotrichum lindemuthianum (leaf spot on bean); conditions: 168 h, 500 ppm of active ingredient, preventive spray on bean, evaluated 7 days after inoculation, read-out: efficacy
Method in brief: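 Young bean plants sprayed with compound in DMSO/acetone/Tween 80 diluted in water; solvent-only controls. Inoculated 24 h later with C. lindemuthianum spore suspension, then kept 24 h at 20 °C/100% RH and 6 days at 20 °C/90% RH.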

Septoria tritici = assay: B-9. Septoria tritici in vitro cell test; assay type: cell-based; conditions: Zymoseptoria tritici, 168 h; 20 ppm of active ingredient; 7 days incubation; liquid culture, absorbance; read-out: efficacy (inhibition of fungal growth)
Description: B-9. Septoria tritici In Vitro Cell Test [table] Fungicides were solubilized in DMSO and the solution used to prepare the required range of concentrations. The final concentration of DMSO used in the assay was ≤1%. A spore suspension of S. tritici was prepared and diluted to the desired spore density. Fungicides were evaluated for their ability to inhibit spore germination and mycelium growth in liquid culture assay. The compounds were added in the desired concentration to the culture medium with spores. After 7 days incubation, fungi-toxicity of compounds was determined by spectrometric measurement of mycelium growth. Inhibition of fungal growth was determined by comparing the absorbance values in wells containing the fungicides with the absorbance in control wells without fungicides.

[6] = tested on: Colletotrichum lindemuthianum; assay: B-8. Colletotrichum lindemuthianum in vitro cell test; assay type: cell-based; conditions: 144 h, 20 ppm of active ingredient, 6 days incubation, liquid culture, absorbance, read-out: efficacy (inhibition of fungal growth)
Method in brief: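 Liquid-culture germination/growth test: compounds in ≤1% final DMSO were added to spore-containing medium. Fungal growth was quantified spectrophotometrically after 6 days of incubation and expressed as inhibition versus untreated controls.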

Botrytis cinerea [7] = assay: In vivo preventive test on Botrytis cinerea (grey mould); conditions: 500 ppm of active ingredient, preventive spray on gherkin or cabbage, evaluated 4 to 5 days after inoculation, read-out: efficacy
Method in brief: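 Preventive spray on cabbage or gherkin seedlings, with compound formulated in DMSO/acetone/Tween 80 and water-diluted, preceded spore inoculation by 24 hours. Cabbage was held 4 to 5 days at 20° C., 100% relative humidity; gherkin 4 to 5 days at 17° C., 90% relative humidity.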

SMILES | chromatographic logP [2] | inhibition at 20 ppm (Pyrenophora teres [1]) | inhibition at 20 ppm (Alternaria alternata) | pest or weed control at 500 ppm (Pyrenophora teres [3]) | inhibition at 20 ppm (Botrytis cinerea [4]) | pest or weed control at 500 ppm (Sphaerotheca fuliginea) | pest or weed control at 500 ppm [5] | inhibition at 20 ppm (Septoria tritici) | inhibition at 20 ppm [6] | pest or weed control at 500 ppm (Botrytis cinerea [7])
O=C(NCC(F)(F)c1ccc(Cl)cc1Cl)c1c(Oc2cccc(C(F)(F)F)c2)nnc2c1CCC2 [I-198] | 4.05 | 90 to 100% | 90 to 100% | 80 to 89% | 90 to 100% | 90 to 100% | 90 to 100% | 90 to 100% | 90 to 100% | 90 to 100%
O=C(NCC(F)(F)c1ccc(Cl)cc1Cl)c1c(Oc2cccc(Cl)c2F)nnc2c1CCC2 [I-201] | 3.94 | 90 to 100% | 90 to 100% | 90 to 100% | 90 to 100% | 90 to 100% | 90 to 100% | 90 to 100% | 90 to 100% | 90 to 100%
Cc1cc(Br)ccc1C(F)(F)CNC(=O)c1c(Oc2cccc(C(F)(F)F)c2)nnc2c1CCCC2 [I-202] | 4.28 | 90 to 100% | 90 to 100% | 90 to 100% | 90 to 100% | 90 to 100% | 90 to 100% | 90 to 100% | 90 to 100% | 90 to 100%
Cc1cc(Br)ccc1C(F)(F)CNC(=O)c1c(Oc2cccc(C(F)(F)F)c2)nnc2c1CCC2 [I-206] | 4.17 | 90 to 100% | 90 to 100% | 90 to 100% | 90 to 100% | 90 to 100% | 90 to 100% | 90 to 100% | 90 to 100% | 90 to 100%

Now from value to compound, other results behind:

chromatographic logP [2] | SMILES | inhibition at 20 ppm (Pyrenophora teres [1]) | inhibition at 20 ppm (Alternaria alternata) | pest or weed control at 500 ppm (Pyrenophora teres [3]) | inhibition at 20 ppm (Botrytis cinerea [4]) | pest or weed control at 500 ppm (Sphaerotheca fuliginea) | pest or weed control at 500 ppm [5] | inhibition at 20 ppm (Septoria tritici) | inhibition at 20 ppm [6] | pest or weed control at 500 ppm (Botrytis cinerea [7])
4.28 | O=C(NCC(F)(F)c1ccc(Br)cc1Cl)c1c(Oc2cccc(C(F)(F)F)c2)nnc2c1CCCC2 [I-207] | 90 to 100% | 90 to 100% | 90 to 100% | 90 to 100% | 90 to 100% | 90 to 100% | 90 to 100% | 90 to 100% | 90 to 100%
3.84 | O=C(NCC(F)(F)c1ccc(Br)cc1Cl)c1c(Oc2cccc(C(F)F)c2)nnc2c1CCCC2 [I-208] | 90 to 100% | 90 to 100% | 90 to 100% | 90 to 100% | 90 to 100% | 90 to 100% | 90 to 100% | 90 to 100% | 90 to 100%
4.11 | O=C(NCC(F)(F)c1ccc(Br)cc1Cl)c1c(Oc2cccc(Cl)c2)nnc2c1CCCC2 [I-209] | 90 to 100% | 90 to 100% | 90 to 100% | 90 to 100% | 90 to 100% | 90 to 100% | 80 to 89% | 90 to 100% | 90 to 100%
4.4 | O=C(NCC(F)(F)c1ccc(Br)cc1Cl)c1c(Oc2cccc(Cl)c2F)nnc2c1CCCC2 [I-210] | 90 to 100% | 90 to 100% | 90 to 100% | 90 to 100% | 90 to 100% | 90 to 100% | 90 to 100% | 90 to 100% | 90 to 100%
4.69 | O=C(NCC(F)(F)c1ccc(Br)cc1Cl)c1c(Oc2cccc(C3CC3)c2F)nnc2c1CCCC2 [I-211] | 90 to 100% | 90 to 100% | 90 to 100% | 90 to 100% | 90 to 100% | 90 to 100% | 90 to 100% | 90 to 100% | 90 to 100%
